Test results: ChEMBL document CHEMBL1127223, “Evaluation of the intestinal permeability and hepatic handling of peptidomimetic analogs” (Bioorg Med Chem Lett, 1993)
Values after ≈ are worked out from the molar mass of the structure shown.

How the values were obtained:
[1] = Partition coefficient (LogP) value was evaluated; type: physicochemical; conditions: octanol/water
[2] = Tested for aqueous solubility of the compound; type: physicochemical; conditions: read-out: S
[3] = molecular target: T1, Renin (Rattus norvegicus) (UniProt P08424); experiment: Tested for percent inhibition against renin at 10 e-6 M concentration in rat; type: functional
T1 sequence (whole entry): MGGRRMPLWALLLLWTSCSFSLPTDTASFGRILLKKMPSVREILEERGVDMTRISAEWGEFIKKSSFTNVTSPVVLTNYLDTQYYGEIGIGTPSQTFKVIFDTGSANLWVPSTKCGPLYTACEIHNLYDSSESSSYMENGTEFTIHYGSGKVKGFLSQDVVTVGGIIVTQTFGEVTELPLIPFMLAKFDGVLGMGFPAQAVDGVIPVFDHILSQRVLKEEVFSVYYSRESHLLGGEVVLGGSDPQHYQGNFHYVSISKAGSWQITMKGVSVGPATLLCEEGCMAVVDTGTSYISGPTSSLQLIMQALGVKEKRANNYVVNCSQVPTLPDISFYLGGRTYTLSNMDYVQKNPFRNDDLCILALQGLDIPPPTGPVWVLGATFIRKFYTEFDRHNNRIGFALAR

[4] = Tested for pKa value of the compound; type: physicochemical
[5] = molecular target: T1, Renin (Rattus norvegicus); experiment: Tested for % inhibition against renin at 10E-6 M concentration; type: functional

Q: With `CC(C)C[C@H](O)[C@H](O)[C@H](CC1CCCCC1)NC(=O)OC(C)(C)C` as the compound, how does the logP [1] read?
A: The logP was 4.

Q: And the solubility [2]?
A: The solubility was < 20 µg/mL.

Q: And the inhibition [3]?
A: Its inhibition is 0%.

Q: For `CC(C)C[C@H](O)[C@H](O)[C@@H](N)CC1CCCCC1`, which logP [1] is on record?
A: The logP was 2.

Q: What about the solubility [2] of the same compound?
A: The solubility was 5870 µg/mL (≈ 24100 µM).

Q: And the pKa [4]?
A: The pKa was 9.3.

Q: And the inhibition [5]?
A: The inhibition was 0%.

Q: What does the source list for `CC(C)C[C@H](O)[C@H](O)[C@H](CC1CCCCC1)NC(=O)[C@H](Cc1csc(N)n1)NC(=O)[C@H](Cc1ccccc1)NS(=O)(=O)N1CCOCC1`?
A: logP [1]: 3.1; solubility [2]: 10 µg/mL (≈ 14.1 µM); pKa [4]: 6.3
